# According to patent US12325697B2 (Nimbus Clio, Inc., priority 2021, dated 2025):
# Molecular target: Recombinant human Cbl-b (aa 36-427) (Homo sapiens (Human), UniProt Q13191)
# Test: Cbl-b Biochemical Assay (TR-FRET)
# Details: read-out: TR-FRET hCbl-b IC50
# Procedure: Recombinant human Cbl-b (aa 36-427) was expressed in E. coli, purified and biotinylated in vitro. The protein was diluted to 12 nM in freshly prepared assay buffer consisting of 50 mM HEPES, pH 7.0, 100 mM NaCl, 5 mM MgCl2, 0.01% Triton-X 100, 0.01% BSA and 1 mM DTT. Recombinant human Src (aa 254-536)-[…]-Zap-70 (aa 281-297) fusion protein was expressed in E. coli and purified. Protein was diluted in assay buffer to 2-5 nM and supplemented with ATP to 1 mM. Fluorescein-BODIPY labeled UBE[…]([…])-Ub was prepared by conjugating ubiquitin (Ub) labeled at its N-terminus with Fluorescein-BODIPY maleimide (ThermoFisher Catalog no B10250) to E. coli expressed and purified UBE[…]([…]) [see Dou et al Nature Structural and Molecular Biology 8: 982-987, 2013]. Recombinant human UBE2D2([…]) was expressed in E. coli, purified and ubiquitinated and Bodipy labelled in vitro. Protein was diluted to 200 nM in assay buffer without MgCl2 (or Cisbio PPI buffer). Streptavidin-Terbium was added to 2 nM and EDTA to 10 mM, to provide a binding assay mix. Compounds were dissolved in DMSO and diluted to prepare a ten-point dilution series. 100 nl of each compound concentration was dispensed in duplicate in a 384 well black assay plate using acoustic dispensing. Wells for maximum signal controls received 100 nl of DMSO only and wells for minimum signal controls received 100 nl of a reference inhibitor compound at a final assay concentration of […] to produce 100% inhibition. 5 μl of diluted Cbl-b enzyme was added to all wells of the assay plate and incubated at RT for 30-60 min. The enzyme assay was initiated by addition of 5 μl of Src-Zap/ATP mix to all wells, and the plate incubated at RT for 60 min. The enzyme reaction was terminated and the binding reaction was initiated by adding 10 μl of binding assay mix to all wells and incubating the plate at RT for 60 min prior to assay read. Final assay conditions consisted of 6 nM Cbl-b, 1-2.5 nM Src-Zap70, 0.5 mM ATP, 1% (v/v) DMSO (enzyme reaction) and 100 nM UBE2D2([…])-Ub-FL-BODIPY, 5 mM EDTA, 1 nM Streptavidin-Tb (binding reaction). The HTRF assay signal was measured at 520 nm on an Envision plate reader, with reference signal at 485 or 620 nm. Data was normalized using maximum and minimum assay controls: % Inhibition=100-(100*((maximum control)-unknown)/(maximum control-minimum control)). A 4-parameter dose-response equation was used to fit the normalized dose-response data and derive an IC50 for test compounds.
# Recombinant human Cbl-b (aa 36-427), sequence (Q13191 36-427): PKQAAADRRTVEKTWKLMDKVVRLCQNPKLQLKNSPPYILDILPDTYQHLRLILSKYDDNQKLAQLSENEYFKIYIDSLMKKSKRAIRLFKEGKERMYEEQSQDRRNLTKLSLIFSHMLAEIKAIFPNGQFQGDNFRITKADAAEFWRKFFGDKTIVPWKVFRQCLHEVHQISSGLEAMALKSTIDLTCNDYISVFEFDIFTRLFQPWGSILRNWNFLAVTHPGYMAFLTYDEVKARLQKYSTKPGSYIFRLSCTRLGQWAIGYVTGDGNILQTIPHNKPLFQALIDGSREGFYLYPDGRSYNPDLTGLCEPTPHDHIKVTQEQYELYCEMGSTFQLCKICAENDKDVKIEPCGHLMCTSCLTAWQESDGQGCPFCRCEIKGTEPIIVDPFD
row,SMILES,IC50 [µM]
1,"Cn1cnnc1-c1ccccc1-c1cccc(N2Cc3c(cc(CN[C@H]4CCC[C@H]4O)cc3C(F)(F)F)C2=O)c1 [AA-2, 6-((((1S,2R)-2-Hydroxycyclopentyl)amino)methyl)-2-(2′-(4-methyl-4H-1,2,4-triazol-3-yl)-[1,1′-biphenyl]-3-yl)-4-(trifluoromethyl)isoindolin-1-one]",≤ 0.2
2,"Cn1cnnc1-c1nccn1-c1cccc(N2Cc3c(cccc3C(F)(F)F)C2=O)c1 [AAA-8, 2-[3-[2-(4-Methyl-1,2,4-triazol-3-yl)imidazol-1-yl]phenyl]-4-(trifluoromethyl)-3H-isoindol-1-one]",10 to 50
3,"Cn1cnnc1-c1cnn(C)c1-c1cccc(N2Cc3c(cc(CN4CCC5(CC5)C4)cc3C(F)(F)F)C2=O)c1 [AAD-1, 6-((5-Azaspiro [2.4]heptan-5-yl)methyl)-2-(3-(1-methyl-4-(4-methyl-4H-1,2,4-triazol-3-yl)-1H-pyrazol-5-yl)phenyl)-4-(trifluoromethyl)isoindolin-1-one]",≤ 0.2
4,"Cn1cnnc1-c1cnn(C)c1-c1cccc(NC(=O)c2cc(=O)n(C)c(C3CC3)n2)c1 [AAE-6, 2-Cyclopropyl-1-methyl-N-[3-[2-methyl-4-(4-methyl-1,2,4-triazol-3-yl)pyrazol-3-yl]phenyl]-6-oxopyrimidine-4-carboxamide]",10 to 50
5,"CCn1cc(-c2nncn2C)c(-c2cccc(N3Cc4c(cccc4C(F)(F)F)C3=O)c2)n1 [AAF-9, 2-[3-[1-Ethyl-4-(4-methyl-1,2,4-triazol-3-yl)pyrazol-3-yl]phenyl]-4-(trifluoromethyl)-3H-isoindol-1-one]",10 to 50
6,"Cn1cnnc1-c1ccc(C(F)(F)F)cc1-c1cccc(N2Cc3c(cccc3C(F)(F)F)C2=O)c1 [AAG-8, 2-(2′-(4-Methyl-4H-1,2,4-triazol-3-yl)-5′-(trifluoromethyl)-[1,1′-biphenyl]-3-yl)-4-(trifluoromethyl)isoindolin-1-one]",10 to 50
7,"CCOc1cc(-c2c(-c3nncn3C)cnn2C)cc(N2Cc3c(cccc3C(F)(F)F)C2=O)c1 [AAI-7, 2-(3-Ethoxy-5-(1-methyl-4-(4-methyl-4H-1,2,4-triazol-3-yl)-1H-pyrazol-5-yl)phenyl)-4-(trifluoromethyl) isoindolin-1-one]",0.2 to 1
8,"Cn1cnnc1-c1ccc(Br)cc1-c1cccc(N2Cc3c(cccc3C(F)(F)F)C2=O)c1 [AAJ-9, 2-(5′-Bromo-2′-(4-methyl-4H-1,2,4-triazol-3-yl)-[1,1′-biphenyl]-3-yl)-4-(trifluoromethyl)isoindolin-1-one]",1 to 10
9,"Cn1cnnc1-c1ccccc1-c1cccc(N2Cc3c(cccc3C(F)(F)F)C2=O)c1 [AAK-2, 2-(2′-(4-Methyl-4H-1,2,4-triazol-3-yl)-[1,1′-biphenyl]-3-yl)-4-(trifluoromethyl)isoindolin-1-one]",0.2 to 1
10,"Cn1cc(-c2nncn2C)c(-c2cccc(N3Cc4c(cccc4C(F)(F)F)C3=O)c2)n1 [AAL-8, 2-[3-[1-Methyl-4-(4-methyl-1,2,4-triazol-3-yl)pyrazol-3-yl]phenyl]-4-(trifluoromethyl)-3H-isoindol-1-one]",10 to 50
11,"Cn1cnnc1-c1cnn(C)c1-c1ccnc(N2Cc3c(cccc3C(F)(F)F)C2=O)c1 [AAM-3, 2-(4-(1-Methyl-4-(4-methyl-4H-1,2,4-triazol-3-yl)-1H-pyrazol-5-yl)pyridin-2-yl)-4-(trifluoromethyl)isoindolin-1-one]",1 to 10
12,"Cn1cnnc1-c1cnn(C)c1-c1cc(Cl)nc(N2Cc3c(cccc3C(F)(F)F)C2=O)c1 [AAN-7, 2-(6-Chloro-4-(1-methyl-4-(4-methyl-4H-1,2,4-triazol-3-yl)-1H-pyrazol-5-yl)pyridin-2-yl)-4-(trifluoromethyl)isoindolin-1-one]",1 to 10
13,"Cn1cnnc1-c1cnn(C)c1-c1cc(O)nc(N2Cc3c(cccc3C(F)(F)F)C2=O)c1 [AAO-1, 2-(6-Hydroxy-4-(1-methyl-4-(4-methyl-4H-1,2,4-triazol-3-yl)-1H-pyrazol-5-yl)pyridin-2-yl)-4-(trifluoromethyl)isoindolin-1-one]",10 to 50
14,"Cn1cnnc1-c1ccccc1-c1cccc(NC(=O)c2cc(=O)[nH]c(C3CC3)n2)c1 [AAP-1, 2-Cyclopropyl-N-(2′-(4-methyl-4H-1,2,4-triazol-3-yl)-[1,1′-biphenyl]-3-yl)-6-oxo-1,6-dihydropyrimidine-4-carboxamide]",1 to 10
15,"Cn1cnnc1-c1ccccc1-c1cccc(N2Cc3c(cc(CN4CCC5(CC5)C4)cc3C(F)(F)F)C2=O)c1 [AAQ-1, 6-((5-Azaspiro [2.4]heptan-5-yl)methyl)-2-(2′-(4-methyl-4H-1,2,4-triazol-3-yl)-[1,1′-biphenyl]-3-yl)-4-(trifluoromethyl)isoindolin-1-one]",≤ 0.2
16,"CCOc1cc(-c2ccccc2-c2nncn2C)cc(N2Cc3c(cccc3C(F)(F)F)C2=O)c1 [AAR-5, 2-(5-Ethoxy-2′-(4-methyl-4H-1,2,4-triazol-3-yl)-[1,1′-biphenyl]-3-yl)-4-(trifluoromethyl) isoindolin-1-one]",0.2 to 1
17,"Cn1c(O)nnc1-c1cnccc1-c1cccc(N2Cc3c(cccc3C(F)(F)F)C2=O)c1 [AAS-6, 2-(3-(3-(5-Hydroxy-4-methyl-4H-1,2,4-triazol-3-yl)pyridin-4-yl)phenyl)-4-(trifluoromethyl)isoindolin-1-one]",10 to 50
18,"Cn1cnnc1-c1ccccc1-c1cc(Cl)nc(N2Cc3c(cccc3C(F)(F)F)C2=O)c1 [AAT-1, 2-(6-Chloro-4-(2-(4-methyl-4H-1,2,4-triazol-3-yl)phenyl)pyridin-2-yl)-4-(trifluoromethyl)isoindolin-1-one]",0.2 to 1
19,"CCNc1cc(-c2ccccc2-c2nncn2C)cc(N2Cc3c(cccc3C(F)(F)F)C2=O)n1 [AAU-1, 2-(6-(Ethylamino)-4-(2-(4-methyl-4H-1,2,4-triazol-3-yl)phenyl)pyridin-2-yl)-4-(trifluoromethyl)isoindolin-1-one]",≤ 0.2
20,"Cc1nc[nH]c1-c1ccccc1-c1cccc(N2Cc3c(cccc3C(F)(F)F)C2=O)c1 [AAV-6, 2-(2′-(4-Methyl-1H-imidazol-5-yl)-[1,1′-biphenyl]-3-yl)-4-(trifluoromethyl)isoindolin-1-one]",1 to 10
21,"Cn1cnnc1-c1cnn(C)c1-c1cc(NS(C)(=O)=O)nc(N2Cc3c(cccc3C(F)(F)F)C2=O)c1 [AAW-2, N-(4-(1-Methyl-4-(4-methyl-4H-1,2,4-triazol-3-yl)-1H-pyrazol-5-yl)-6-(1-oxo-4-(trifluoromethyl)isoindolin-2-yl)pyridin-2-yl)methanesulfonamide]",1 to 10
22,"Cn1ncnc1-c1ccccc1-c1cccc(N2Cc3c(cccc3C(F)(F)F)C2=O)c1 [AAX-2, 2-(2′-(1-Methyl-1H-1,2,4-triazol-5-yl)-[1,1′-biphenyl]-3-yl)-4-(trifluoromethyl)isoindolin-1-one]",10 to 50
23,"Cn1cnnc1-c1cnccc1-c1cccc(N2Cc3c(cccc3C(F)(F)F)C2=O)c1 [AAY-6, 2-[3-[3-(4-Methyl-1,2,4-triazol-3-yl)-pyridin-4-yl]-phenyl]-4-(trifluoromethyl)-3H-isoindol-1-one]",1 to 10
24,"Cc1conc1-c1ccccc1-c1cccc(N2Cc3c(cccc3C(F)(F)F)C2=O)c1 [AAZ-7, 2-(2′-(4-Methylisoxazol-3-yl)-[1,1′-biphenyl]-3-yl)-4-(trifluoromethyl)isoindolin-1-one]",1 to 10
25,"C[C@H]1CN(Cc2cc3c(c(C(F)(F)F)c2)CN(c2cccc(-c4ccccc4-c4nncn4C)c2)C3=O)CCO1 [AB-2, (S)-2-(2′-(4-Methyl-4H-1,2,4-triazol-3-yl)-[1,1′-biphenyl]-3-yl)-6-((2-methylmorpholino)methyl)-4-(trifluoromethyl)isoindolin-1-one]",≤ 0.2
26,"O=C1c2cccc(C(F)(F)F)c2CN1c1cccc(-c2ccccc2-c2nnco2)c1 [ABA-4, 2-(2′-(1,3,4-Oxadiazol-2-yl)-[1,1′-biphenyl]-3-yl)-4-(trifluoromethyl)isoindolin-1-one]",10 to 50
27,"Cn1cnnc1-c1ccncc1-c1cccc(N2Cc3c(cccc3C(F)(F)F)C2=O)c1 [ABB-5, 2-[3-[4-(4-Methyl-1,2,4-triazol-3-yl)pyridin-3-yl]phenyl]-4-(trifluoromethyl)-3H-isoindol-1-one]",1 to 10
28,"CCNc1cc(-c2c(-c3nncn3C)cnn2C)cc(N2Cc3c(cc(CN4CCC5(CC5)C4)cc3C(F)(F)F)C2=O)n1 [ABC-7, 6-((5-Azaspiro [2.4]heptan-5-yl)methyl)-2-(6-(ethylamino)-4-(1-methyl-4-(4-methyl-4H-1,2,4-triazol-3-yl)-1H-pyrazol-5-yl)pyridin-2-yl)-4-(trifluoromethyl)isoindolin-1-one]",< 0.2
